Columns and labels:
IDH1 R132C = IDH1 R132C (Homo sapiens, UniProt O75874, R132C); assay: IDH1 R132C enzymatic assay (NADPH depletion coupled to diaphorase/resazurin); assay type: biochemical
Method: (§1) Assays were conducted in a 1536-well black solid-bottom plate with a final assay volume of 9 μL.
For IDH1 R132C, 3 μL of enzyme (0.00032 mg/mL IDH1 […], 10% glycerol, 50 mM potassium phosphate pH 6.5, 5 mM MgCl2, 0.03% BSA) were added to the plate, followed by the addition of 23 nL of test compound in DMSO. The plate was lidded and incubated at room temperature for 30 minutes at which time 3 μL of substrate were added (0.012 mM NADPH, 0.6 mM α-KG, 10% glycerol, 50 mM potassium phosphate pH 6.5, 5 mM MgCl2, 0.03% BSA). […]

IDH1 R132H = IDH1 R132H (Homo sapiens, UniProt O75874, R132H); assay: IDH1 R132H enzymatic assay (NADPH depletion coupled to diaphorase/resazurin); assay type: biochemical
Method: as §1
Specifically, for IDH1 R132H, 3 μL of enzyme (4 mM β-ME, 0.0005 mg/mL IDH1 R132H, 150 mM NaCl, 20 mM Tris pH 7.5, 10 mM MgCl2, 0.05% BSA) were added to the plate, followed by the addition of 23 nL of test compound in DMSO. The plate was lidded and incubated at room temperature for 30 minutes at which time 3 μL of substrate were added (0.016 mM NADPH, 2 mM α-KG, 150 mM NaCl, 20 mM Tris pH 7.5, 10 mM MgCl2, 0.05% BSA). This reaction was incubated at room-temperature for 60 minutes at which time the detection mix was added (0.06 mg/mL diaphorase, 0.036 mM resazurin, 150 mM NaCl, 20 mM Tris pH 7.5, 10 mM MgCl2, 0.05% BSA). […]

[1] = IDH1 R132C enzymatic inhibition, IC50 class
[2] = IDH1 R132H enzymatic inhibition, IC50 class
[3] = enzymatic inhibition, IDH1 R132C
[4] = enzymatic inhibition, IDH1 R132H

IDH1 R132C, sequence (O75874 whole entry R132C): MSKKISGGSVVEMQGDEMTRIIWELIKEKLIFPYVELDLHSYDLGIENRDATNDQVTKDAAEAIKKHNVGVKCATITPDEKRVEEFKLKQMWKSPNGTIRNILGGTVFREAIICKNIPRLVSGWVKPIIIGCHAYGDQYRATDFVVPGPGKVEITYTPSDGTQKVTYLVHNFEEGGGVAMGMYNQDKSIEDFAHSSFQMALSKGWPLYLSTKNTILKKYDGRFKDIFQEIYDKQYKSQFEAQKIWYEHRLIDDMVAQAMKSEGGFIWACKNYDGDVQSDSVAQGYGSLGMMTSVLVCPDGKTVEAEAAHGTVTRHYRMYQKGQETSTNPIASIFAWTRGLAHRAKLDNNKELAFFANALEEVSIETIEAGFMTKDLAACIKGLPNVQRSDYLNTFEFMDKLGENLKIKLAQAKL
IDH1 R132H, sequence (O75874 whole entry R132H): as the sequence (O75874 whole entry R132C) above, with C132H counted along it

Compound | IC50 (IDH1 R132C; [1]) | IC50 (IDH1 R132H; [2]) | IC50 (IDH1 R132C; [3]) | IC50 (IDH1 R132H; [4])
CCc1cccc(CC)c1-n1c(CC(C)C)c(C(=O)N2CCNC(C(N)=O)C2)cc(-c2nc(-c3ccc(Cl)cc3)cs2)c1=O (stereo not drawn) [Compound 48] | < 300 nM | 300 to 1000 nM | – | –
CCc1cccc(CC)c1-n1c(C(C)C)c(C(=O)NC2CCNCC2)cc(-c2nc(-c3ccc(Cl)cc3)cs2)c1=O [Compound 35] | 1000 to 5000 nM | 1000 to 5000 nM | – | –
CC(C)COc1ccccc1-n1c2c(cc(-c3nc(-c4ccc(Cl)cc4)cs3)c1=O)C(=O)CC(C)(C)C2 [Compound 256] | 300 to 1000 nM | 300 to 1000 nM | – | –
CCc1cccc(CC)c1-n1c(CC(C)C)c(C(=O)N[C@@H]2CCC[C@@H]2O)cc(-c2nc(-c3ccc(Cl)cc3)cs2)c1=O [Compound 187] | 300 to 1000 nM | 300 to 1000 nM | – | –
CCc1cccc(CC)c1-n1c(C)c(C(=O)NCCOC)cc(-c2nc(-c3ccc(Cl)cc3)cs2)c1=O [Compound 169] | 300 to 1000 nM | 1000 to 5000 nM | – | –
CCc1cccc(CC)c1-n1c(CC(C)C)c(C(=O)N[C@@H](CO)c2ccccc2)cc(-c2nc(-c3ccc(Cl)cc3)cs2)c1=O [Compound 20] | < 300 nM | 300 to 1000 nM | – | –
COc1ccc(OC)c(-n2c3c(cc(-c4nc(-c5ccc(Cl)cc5)cs4)c2=O)C(=O)N(C(=O)OC(C)(C)C)CC3)c1 [Compound 23] | 5000 to 20000 nM | > 20000 nM | – | –
COc1ccc(OC)c(-n2c3c(cc(-c4cccc(-c5ccc(Cl)cc5)n4)c2=O)C(=O)CC(C)(C)C3)c1 [Compound 284] | 5000 to 20000 nM | 5000 to 20000 nM | – | –
COc1cccc(F)c1-n1c2c(cc(-c3nc(-c4ccc(Cl)cc4)cs3)c1=O)C(=O)CC(C)(C)C2 [Compound 668] | 1000 to 5000 nM | 1000 to 5000 nM | – | –
CCc1cccc(CC)c1-n1c(CC(C)C)c(C(=O)N2CCNCC2)cc(-c2nc(-c3ccc(OC)nc3)c(C)s2)c1=O [Compound 322] | 300 to 1000 nM | 300 to 1000 nM | – | –
COc1cc(Cl)ccc1-n1c2c(cc(-c3nc(-c4ccc(Cl)cc4)cs3)c1=O)C(=O)CC(C)(C)C2 [Compound 579] | – | – | 5000 to 20000 nM | 5000 to 20000 nM
CCOc1ncc(C)cc1-n1c(C=C(C)C)c(C(=O)N2CCNCC2)cc(-c2nc(-c3ccc(C(F)F)cn3)cs2)c1=O [Compound 592] | – | – | 1000 to 5000 nM | 300 to 1000 nM
CCc1cccc(CC)c1-n1c(C=C(C)C)c(C(=O)N2CCNCC2)cc(-c2nc(-c3ccc(C(F)(F)F)cn3)cs2)c1=O [Compound 515] | – | – | < 300 nM | < 300 nM
CCc1cccc(CC)c1-n1c(C=C(C)C)c(C(=O)N2C[C@H]3CC[C@@H](C2)N3)cc(-c2nc(-c3ccc(Cl)cc3)cs2)c1=O [Compound 388] | < 300 nM | < 300 nM | – | –
CCc1cccc(CC)c1-n1c(CC(C)C)c(C(=O)N2CCNCC2)cc(-c2ccn(-c3ccc(Cl)cc3)n2)c1=O [Compound 184] | < 300 nM | < 300 nM | – | –
COc1ccc(OC)c(-n2c3c(cc(-c4nc(-c5ccc(Cl)cc5)cs4)c2=O)C(=O)CCC3)c1 [Compound 129] | 1000 to 5000 nM | 1000 to 5000 nM | – | –
O=C1CCCc2c1cc(-c1nc(-c3ccc(Cl)cc3)cs1)c(=O)n2-c1cccc(CO)c1 [Compound 565] | – | – | 5000 to 20000 nM | 5000 to 20000 nM
Cc1cc(CO)ccc1-n1c2c(cc(-c3nc(-c4ccc(Cl)cc4)cs3)c1=O)C(=O)CCC2 [Compound 342] | 5000 to 20000 nM | 5000 to 20000 nM | – | –
CCc1cccc(CC)c1-n1c2c(cc(-c3nc(-c4ccc(Cl)cc4)c(C)s3)c1=O)C(=O)CC(C)(C)C2 [Compound 251] | < 300 nM | 300 to 1000 nM | – | –
CCc1cccc(CC)c1-n1c(C(C)C)c(C(=O)N2CCNC(CO)C2)cc(-c2nc(-c3ccc(Cl)cc3)cs2)c1=O (stereo not drawn) [Compound 84] | < 300 nM | 300 to 1000 nM | – | –
CCc1cccc(CC)c1-n1c(C=C(C)C)c(C(=O)N2CCNC(=O)C2c2ccccc2)cc(-c2nc(-c3ccc(Cl)cc3)cs2)c1=O (stereo not drawn) [Compound 499] | – | – | < 300 nM | 300 to 1000 nM
CCCC1CNCCN1C(=O)c1cc(-c2nc(-c3ccc(Cl)cc3)cs2)c(=O)n(-c2c(CC)cccc2CC)c1C=C(C)C (stereo not drawn) [Compound 648] | < 300 nM | 300 to 1000 nM | – | –
CC(C)=Cc1c(C(=O)N2CCNCC2)cc(-c2nc(-c3ccc(Cl)cc3)cs2)c(=O)n1-c1ccccc1OCC(F)(F)F [Compound 589] | – | – | < 300 nM | < 300 nM
CCc1cccc(CC)c1-n1c(C=C(C)C)c(C(=O)N2CCNCC2)cc(-c2nc(-c3ccc(C(F)F)cc3)cs2)c1=O [Compound 336] | < 300 nM | < 300 nM | – | –

— patent US10703746B2, “Mutant IDH1 inhibitors useful for treating cancer” (THE UNITED STATES OF AMERICA, AS REPRESENTED BY THE …, priority 2014, dated 2020)
